Measured values: US7998940B2, “Aptamers to von Willebrand factor and their use as thrombotic disease therapeutics” (Archemix Corp., priority 2004, dated 2011)
Read-outs that look alike come from different tables or passages of the source. Oligonucleotides are written 5' to 3', each unit as a sugar letter and its base; * is a phosphorothioate linkage, no mark a phosphodiester; rarer units and linkages stand in square brackets, end groups in braces. Plain capitals give the bases only. [PEG] = polyethylene glycol spacer within the chain; [invdT] = inverted (3'-3') thymidine; d = 2'-deoxy (DNA); m = 2'-O-methyl

Tested on: full length human vWF (SEQ ID NO 7)
Test: dot blot KD determination and extent of binding, full length human vWF;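 also: dot blot binding of aptamers to full length human vWF across a protein titration, incubated 30 minutes at room temperature in 1x DPBS with BSA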
Conditions: for % binding @ 100 nM vWF: extent of aptamer binding at 100 nM full length human vWF; for Kd: full length human vWF, read-out: KD
[1] = Phase 3 modification, dot blot, 8 point protein titration

Protocol: Based on this initial screen, KDs were determined for 3 of the vWF dependent binding sequences using the dot blot assay. […] A 12 point protein titration was used in the dot blot assay (300 nM, 100 nM, 30 nM, 10 nM, 3 nM, 1 nM, 300 pM, 100 pM, 30 pM, 10 pM, 3 pM, 0 pM) in 1×DPBS plus 0.1 mg/mL BSA at room temperature for 30 minutes.
An 8 point protein titration was used in the dot blot binding assay (100n M, 30 nM, 10 nM, 3 nM, 1 nM, 300 pM, 100 pM, 0 pM)) in 1× Dulbecco's PBS containing 0.1 BSA (final volume of 50 uL) for 30 minutes at room temperature.

Substance | % binding @ 100 nM vWF (Phase 3 modification) [%] | Kd [1] [nM] | % binding @ 100 nM vWF (Phase 4 and 5 modification) [%] | Kd (Phase 4 and 5 modification) [nM] | further results
ARC1369: ARC1361 with single phosphorothioate phosphate backbone modification (mGmCmGmUdGdCdAmGmUmGmCmCmUmUmCmGmGmCdCmGdT*mGdCdGdGdTmGmCdCmUdCdCmGmUdCmAmCmGmC[invdT]; aptamer) | 26.2 | 16.3 | – | – | –
ARC1370: ARC1361 with single phosphorothioate phosphate backbone modification (mGmCmGmUdGdCdAmGmUmGmCmCmUmUmCmGmGmCdCmGdTmG*dCdGdGdTmGmCdCmUdCdCmGmUdCmAmCmGmC[invdT]; aptamer) | 22.5 | 10.1 | – | – | –
ARC1371: ARC1361 with single phosphorothioate phosphate backbone modification (mGmCmGmUdGdCdAmGmUmGmCmCmUmUmCmGmGmCdCmGdTmGdC*dGdGdTmGmCdCmUdCdCmGmUdCmAmCmGmC[invdT]) | 32.1 | 8.4 | – | – | –
ARC1372: ARC1361 with single phosphorothioate phosphate backbone modification (mGmCmGmUdGdCdAmGmUmGmCmCmUmUmCmGmGmCdCmGdTmGdCdG*dGdTmGmCdCmUdCdCmGmUdCmAmCmGmC[invdT]; aptamer) | 35.2 | 23.5 | – | – | –
ARC1373: ARC1361 with single phosphorothioate phosphate backbone modification (mGmCmGmUdGdCdAmGmUmGmCmCmUmUmCmGmGmCdCmGdTmGdCdGdG*dTmGmCdCmUdCdCmGmUdCmAmCmGmC[invdT]; aptamer) | 33.0 | 7.1 | – | – | –
ARC1374: ARC1361 with single phosphorothioate phosphate backbone modification (mGmCmGmUdGdCdAmGmUmGmCmCmUmUmCmGmGmCdCmGdTmGdCdGdGdT*mGmCdCmUdCdCmGmUdCmAmCmGmC[invdT]; aptamer) | 27.2 | 9.5 | – | – | –
ARC1375: ARC1361 with single phosphorothioate phosphate backbone modification (mGmCmGmUdGdCdAmGmUmGmCmCmUmUmCmGmGmCdCmGdTmGdCdGdGdTmGmC*dCmUdCdCmGmUdCmAmCmGmC[invdT]; aptamer) | 25.5 | 8.8 | – | – | –
ARC1376: ARC1361 with single phosphorothioate phosphate backbone modification (mGmCmGmUdGdCdAmGmUmGmCmCmUmUmCmGmGmCdCmGdTmGdCdGdGdTmGmCdC*mUdCdCmGmUdCmAmCmGmC[invdT]; aptamer) | 31.3 | 4.4 | – | – | –
ARC1377: ARC1361 with single phosphorothioate phosphate backbone modification (mGmCmGmUdGdCdAmGmUmGmCmCmUmUmCmGmGmCdCmGdTmGdCdGdGdTmGmCdCmU*dCdCmGmUdCmAmCmGmC[invdT]; aptamer) | 30.9 | 7.4 | – | – | –
ARC1378: ARC1361 with single phosphorothioate phosphate backbone modification (mGmCmGmUdGdCdAmGmUmGmCmCmUmUmCmGmGmCdCmGdTmGdCdGdGdTmGmCdCmUdC*dCmGmUdCmAmCmGmC[invdT]; aptamer) | 31.1 | 9.1 | – | – | –
ARC1379: ARC1361 with single phosphorothioate phosphate backbone modification (mGmCmGmUdGdCdAmGmUmGmCmCmUmUmCmGmGmCdCmGdTmGdCdGdGdTmGmCdCmUdCdC*mGmUdCmAmCmGmC[invdT]; aptamer) | 31.3 | 10.4 | – | – | –
ARC1380: ARC1361 with single phosphorothioate phosphate backbone modification (mGmCmGmUdGdCdAmGmUmGmCmCmUmUmCmGmGmCdCmGdTmGdCdGdGdTmGmCdCmUdCdCmGmU*dCmAmCmGmC[invdT]) | 32.5 | 12 | – | – | –
ARC1381: ARC1361 with single phosphorothioate phosphate backbone modification (mGmCmGmUdGdCdAmGmUmGmCmCmUmUmCmGmGmCdCmGdTmGdCdGdGdTmGmCdCmUdCdCmGmUdC*mAmCmGmC[invdT]) | 35.8 | 8.7 | – | – | –
dGdGdCdGTdGdCdAdGTdGdCdCTTdCdGdGdCdCdG-s-TdGdCdGdGTdGdCdCTdCdCdGTdCdAdCdGdCdC-3T (dGdGdCdGdTdGdCdAdGdTdGdCdCdTdTdCdGdGdCdCdG*dTdGdCdGdGdTdGdCdCdTdCdCdGdTdCdAdCdGdCdC[invdT]) [ARC1759] | – | – | 46 | 0.7 | binding to human vWF (in words, dot blot): measurable improvement in affinity relative to ARC1172
dGdGdCdGTdGdCdAdGTdGdCdCTTdCdGdGdCdCdGTmGdCdGdGTmGmCdCmUdCdCmGmUmCdAdCdGdCdC-3T (dGdGdCdGdTdGdCdAdGdTdGdCdCdTdTdCdGdGdCdCdGdTmGdCdGdGdTmGmCdCmUdCdCmGmUmCdAdCdGdCdC[invdT]; aptamer) [ARC1340] | – | – | – | – | % binding @ 100 nM vWF (Phase 2 modification): 43%; Kd (Phase 2 modification): 7.4 nM
dGdGdCdGTdGdCdAmGmUdGdCdCTTdCdGdGdCdCmGTmGdCdGdGTdGdCdCTdCdCmGmUmCdAdCdGdCdC-3T (dGdGdCdGdTdGdCdAmGmUdGdCdCdTdTdCdGdGdCdCmGdTmGdCdGdGdTdGdCdCdTdCdCmGmUmCdAdCdGdCdC[invdT]; aptamer) [ARC1339] | – | – | – | – | % binding @ 100 nM vWF (Phase 2 modification): 39%; Kd (Phase 2 modification): 2.4 nM
mCmCmGmGmCdCmG-s-TmGdCdGdGTmGmCdCmUdCdCmGmUdCmAmCmGmUmUmCmCmGmUdGdCdAmGmUmGmCmCmGmG-3T (mCmCmGmGmCdCmG*dTmGdCdGdGdTmGmCdCmUdCdCmGmUdCmAmCmGmUmUmCmCmGmUdGdCdAmGmUmGmCmCmGmG[invdT]; aptamer) [ARC1546] | – | – | 26 | 24 | –
mCmCmGmGmCdCmG-s-TmGdCdGdGTmGmCdCmUdCdCmGmUmCmAmCmUmUmUmGmUdGdCdAmGmUmGmCmCmGmG-3T (mCmCmGmGmCdCmG*dTmGdCdGdGdTmGmCdCmUdCdCmGmUmCmAmCmUmUmUmGmUdGdCdAmGmUmGmCmCmGmG[invdT]; aptamer) [ARC1535] | – | – | 48.3 | 27.1 | –
mCmGmGmCdCmG-s-TmGdCdGdGTmGmCdCmUdCdCmGmUmCmAmCmUmUmUmGmUdGdCdAmGmUmGmCmCmG-3T (mCmGmGmCdCmG*dTmGdCdGdGdTmGmCdCmUdCdCmGmUmCmAmCmUmUmUmGmUdGdCdAmGmUmGmCmCmG[invdT]; aptamer) [ARC1534] | – | – | 25.6 | 62.8 | –
mCmGmUdGdCdAmGmUmGmCmCPEGmGmGmCdCmG-s-TmGdCdGdGTmGmCdCmUdCdCmGmUdCmAmCmG-3T (mCmGmUdGdCdAmGmUmGmCmC[PEG]mGmGmCdCmG*dTmGdCdGdGdTmGmCdCmUdCdCmGmUdCmAmCmG[invdT]; aptamer) [ARC1531] | – | – | 20.0 | 1.5 | –
mCmGmUdGdCdAmGmUmGmCmCPEGmGmGmCdCmG-s-TmGdCdGdGTmGmCdCmUdCdCmGmUmCmAmCmG-3T (mCmGmUdGdCdAmGmUmGmCmC[PEG]mGmGmCdCmG*dTmGdCdGdGdTmGmCdCmUdCdCmGmUmCmAmCmG[invdT]; aptamer) [ARC1532] | – | – | 19.3 | 2.6 | –
mCmGmUdGdCdAmGmUmGmCmCmUmUmCmGmGmCdCmG-s-TmGdCdGdGTmGmCdCmUdCdCmGmUmCmAmCmG-3T (mCmGmUdGdCdAmGmUmGmCmCmUmUmCmGmGmCdCmG*dTmGdCdGdGdTmGmCdCmUdCdCmGmUmCmAmCmG[invdT]; aptamer) [ARC1529] | – | – | 22.6 | 12.3 | –
mCmGmUdGdCdAmGmUmGmCmCmUmUmUmGmGmCdCmG-s-TmGdCdGdGTmGmCdCmUdCdCmGmUmCmAmCmG-3T (mCmGmUdGdCdAmGmUmGmCmCmUmUmUmGmGmCdCmG*dTmGdCdGdGdTmGmCdCmUdCdCmGmUmCmAmCmG[invdT]; aptamer) [ARC1530] | – | – | 19.2 | 15 | –
mGmCmGmUdGdCdAmGmUmGmCmCPEGmGmGmCdCmG-s-TmGdCdGdGTmGmCdCmUdCdCmGmUdCmAmCmGmC-3T (mGmCmGmUdGdCdAmGmUmGmCmC[PEG]mGmGmCdCmG*dTmGdCdGdGdTmGmCdCmUdCdCmGmUdCmAmCmGmC[invdT]) [ARC1527] | – | – | 14.1 | 3.4 | –
mGmCmGmUdGdCdAmGmUmGmCmCPEGmGmGmCdCmG-s-TmGdCdGdGTmGmCdCmUdCdCmGmUmCmAmCmGmC-3T (mGmCmGmUdGdCdAmGmUmGmCmC[PEG]mGmGmCdCmG*dTmGdCdGdGdTmGmCdCmUdCdCmGmUmCmAmCmGmC[invdT]; aptamer) [ARC1528] | – | – | 10.2 | 4.2 | –
mGmCmGmUdGdCdAmGmUmGmCmCmUmUmCmGmGmCdCmG-s-TmGdCdGdGTmGmCdCmUdCdCmGmUmCmAmCmGmC-3T (mGmCmGmUdGdCdAmGmUmGmCmCmUmUmCmGmGmCdCmG*dTmGdCdGdGdTmGmCdCmUdCdCmGmUmCmAmCmGmC[invdT]) [ARC1524] | – | – | 26.5 | 5.7 | –
mGmCmGmUdGdCdAmGmUmGmCmCmUmUmUmGmGmCdCmG-s-TmGdCdGdGTmGmCdCmUdCdCmGmUmCmAmCmGmC-3T (mGmCmGmUdGdCdAmGmUmGmCmCmUmUmUmGmGmCdCmG*dTmGdCdGdGdTmGmCdCmUdCdCmGmUmCmAmCmGmC[invdT]) [ARC1526] | – | – | 29.0 | 4.7 | –
mGmGmCmGmU-s-dG-s-dC-s-dAmGmUmGmCmCmUmUmCmGmGmC-s-dCmG-s-TmG-s-dC-s-dG-s-dG-s-TmGmC-s-dCmU-s-dC-s-dCmGmUmCmAmCmGmCmC-3T (mGmGmCmGmU*dG*dC*dAmGmUmGmCmCmUmUmCmGmGmC*dCmG*dTmG*dC*dG*dG*dTmGmC*dCmU*dC*dCmGmUmCmAmCmGmCmC[invdT]) [ARC1345] | – | – | – | – | % binding @ 100 nM vWF (Phase 2 modification): 29%; Kd (Phase 2 modification): 12.1 nM
mGmGmCmGmUdG-s-dC-s-dAmGmUmGmCmCmUmUmCmGmGmC-s-dCmGTmGdC-s-dG-s-dGTmGmCdCmUdC-s-dCmGmUmCmAmCmGmCmC-3T (mGmGmCmGmUdG*dC*dAmGmUmGmCmCmUmUmCmGmGmC*dCmGdTmGdC*dG*dGdTmGmCdCmUdC*dCmGmUmCmAmCmGmCmC[invdT]) [ARC1344] | – | – | – | – | % binding @ 100 nM vWF (Phase 2 modification): 17%; Kd (Phase 2 modification): 4.8 nM
